Reference: patent US20230103631A1, “PEPTIDES AS SELECTIVE GIP RECEPTOR AGONISTS” (Sanofi, priority 2020, published 2023)
*1 amine or outer side, *2 acyl side, *3 side chain or, on linkers, in order; H or OH if unused. Where a SMILES comes first, the peptide text is derived from it. Side-chain parts run from the residue outwards. [ ]: non-standard residue; d: D form. The star is where a group is joined. C18 diacid = O=C(O)CCCCCCCCCCCCCCCCC(=O)*; γGlu = O=C(O)[C@H](CCC(=O)[*:2])N[*:1]; AEEA = NCCOCCOCC(=O)O; Aib = CC(C)(N)C(=O)O

Legend:
[1] = Pharmacokinetic evaluation in monkeys; format: in vivo; details: male, cynomolgus monkey, plasma
Method: (§1) Compounds were administered in a suitable buffer system, e.g. PBS buffer solution at pH7.4 or DPBS solution at concentrations of 0.05, 0.1, 0.5 or 1 mg/ml depending on dose, species and administration volume.
Male cynomolgus monkeys were dosed 0.1 mg/kg intravenously (i.v.) or subcutaneously (s.c.). Blood samples were collected after 0.083, 0.25, 0.5, 1, 2, 4, 8, 24, 32, 48, and 72 h post i.v. application and 0.5, 1, 2, 4, 8, 24, 48, 72, and 96 h post s.c. application, respectively. Plasma samples were analyzed after protein precipitation via liquid chromatography mass spectrometry (LC/MS). PK parameters and half-life were calculated using Phoenix-WinNonlin 8.1 using a non-compartmental model and linear trapezoidal interpolation calculation.
(§2) Pharmacokinetic profiles were determined as described in Methods.

[2] = Pharmacokinetic evaluation in rats; format: in vivo; details: male, SD, rat, plasma
Method: as §1
Male SD rats were dosed 0.25 mg/kg, 0.5 mg/kg or 1 mg/kg intravenously (i.v.) or subcutaneously (s.c.). Blood samples were collected after 0.08, 0.25, 0.5, 1, 2, 4, 8, 24, 32, and 48 h post i.v. application and 0.25, 0.5, 1, 2, 4, 8, 24, 32, and 48 h post s.c. application, respectively. Plasma samples were analyzed after protein precipitation via liquid chromatography mass spectrometry (LC/MS). PK parameters and half-life were calculated using Phoenix-WinNonlin 8.1 using a non-compartmental model and linear trapezoidal interpolation calculation.
as §2

[3] = Pharmacokinetic evaluation in mice; format: in vivo; details: female, C57Bl/6, mouse, plasma
Method: as §1
Female C57Bl/6 mice were dosed 0.25 mg/kg, 0.5 mg/kg or 1 mg/kg intravenously (i.v.) or subcutaneously (s.c.). The mice were sacrificed, and blood samples were collected after 0.08, 0.25, 0.5, 1, 2, 4, 8, 24, 32, and 48 h post i.v. application and 0.25, 0.5, 1, 2, 4, 8, 24, 32, and 48 h post s.c. application, respectively. Plasma samples were analyzed after protein precipitation via liquid chromatography mass spectrometry (LC/MS). PK parameters and half-life were calculated using Phoenix-WinNonlin 8.1 using a non-compartmental model and linear trapezoidal interpolation calculation.
as §2

[4] = ThT assay for the assessment of physical stability; format: physicochemical; details: ThT buffer system A: 100 mM phosphate buffer pH 7.4; 3 mg/ml, 37° C.
Description: Low physical stability of a peptide solution may lead to amyloid fibril formation, which is observed as well-ordered, thread-like macromolecular structures in the sample, which eventually may lead to gel formation. Thioflavin T (ThT) is widely used to visualize and quantify the presence of misfolded protein aggregates [Biancalana et al., Biochim. Biophys. Acta 2010, 1804(7), 1405]. […] Enzymol. 1999, 309, 274]. The time course for fibril formation often follows the characteristic shape of a sigmoidal curve and can be separated into three regions: a lag phase, a fast growth phase, and a plateau phase.
The typical fibril formation process starts with the lag phase in which the amount of partially folded peptide turned into fibrils is not significant enough to be detected. The lag-time corresponds to the time the critical mass of the nucleus is built. Afterwards, a drastic elongation phase follows, and fibril concentration increases rapidly.
Investigations were carried out to determine fibrillation tendencies under stress conditions by shaking at 37° C. within Fluoroskan Ascent FL or Fluoroskan Ascent.
For the tests in Fluoroskan Ascent (FL), 200 μl sample were placed into a 96-well mictrotiter plate PS, flat bottom, Greiner Fluotrac No. 655076. Plates were sealed with Scotch Tape (Qiagen). Samples were stressed by continuous cycles of 10 sec shaking at 960 rpm and 50 sec rest period at 37° C. The kinetic was monitored by measuring fluorescence intensity every 20 min.
Peptides were diluted in a buffer system to a final concentration of 3 mg/ml. 20 μl of a 10.1 mM ThT solution in H2O were added to 2 ml of peptide solution to receive a final concentration of 100 μM ThT. For each sample eight replicates were tested.
ThT buffer system A) 100 mM phosphate buffer pH 7.4
ThT buffer system B) 100 mM phosphate buffer pH 7.4, 2.7 mg/ml m-cresol
Lag time in hours (h) in Thioflavin T (ThT) assay of peptide samples was determined in ThT buffer system A as described in Methods.

[5] = iv, 0.25 mg/kg i.v., read-out: CI (converted)

SMILES: CC[C@H](C)[C@H](NC(=O)[C@H](Cc1ccccc1)NC(=O)[C@H](CCC(=O)O)NC(=O)[C@H](CCC(=O)O)NC(=O)[C@H](CCC(N)=O)NC(=O)[C@H](Cc1c[nH]cn1)NC(=O)[C@@H](NC(=O)[C@H](CCCNC(=N)N)NC(=O)[C@H](CC(=O)O)NC(=O)[C@H](CCCCNC(=O)COCCOCCNC(=O)COCCOCCNC(=O)CC[C@H](NC(=O)CCCCCCCCCCCCCCCCC(=O)O)C(=O)O)NC(=O)C(C)(C)NC(=O)[C@@H](NC(=O)[C@H](CO)NC(=O)[C@H](CC(C)C)NC(=O)[C@H](CC(=O)O)NC(=O)[C@H](CO)NC(=O)[C@@H](NC(=O)[C@H](Cc1ccccc1)NC(=O)[C@@H](NC(=O)CNC(=O)[C@H](CCC(=O)O)NC(=O)C(C)(C)NC(=O)[C@@H](N)Cc1ccc(O)cc1)[C@@H](C)O)[C@@H](C)CC)[C@@H](C)CC)[C@@H](C)CC)C(=O)N[C@@H](CCC(=O)O)C(=O)N[C@@H](Cc1c[nH]c2ccccc12)C(=O)N[C@@H](CC(C)C)C(=O)N[C@@H](CC(C)C)C(=O)N[C@@H](C)C(=O)N[C@@H](CCC(N)=O)C(=O)NCC(=O)N1CCC[C@H]1C(=O)N[C@@H](CO)C(=O)N[C@@H](CO)C(=O)NCC(=O)N[C@@H](C)C(=O)N1CCC[C@H]1C(=O)N1CCC[C@H]1C(=O)N1CCC[C@H]1C(=O)N[C@@H](CO)C(N)=O [SEQ ID NO: 9, H2N-Y-Aib-E-G-T-F-I-S-D-I-S-I-Aib-K[{AEEA}2-gGlu-C18OH]-DRIHQEEFIEWILAQGPSSGAPPPS-NH2] (H-Y[Aib]EGTFISDLSI[Aib]K([AEEA-AEEA-γGlu-C18 diacid])DRIHQEEFIEWLLAQGPSSGAPPPS-NH2)
- AUC(0-t) ([1]; iv, 0.1 mg/kg i.v.): 149 µg·h/mL
- Cmax ([1]; iv, 0.1 mg/kg i.v.): 6.74 µg/mL
- half-life ([1]; iv, 0.1 mg/kg i.v.): 51.4 h
- clearance ([1]; iv, 0.1 mg/kg i.v., read-out: CI (converted)): 0.445 mL/h/kg
- AUC(0-t) ([1]; sc, 0.1 mg/kg s.c.): 122 µg·h/mL
- Cmax ([1]; sc, 0.1 mg/kg s.c.): 1.8 µg/mL
- bioavailability ([1]; sc, 0.1 mg/kg s.c.): 83%
- half-life ([1]; sc, 0.1 mg/kg s.c.): 58.4 h
- AUC(0-t) ([2]; iv, 0.25 mg/kg i.v.): 54.5 µg·h/mL
- Cmax ([2]; iv, 0.25 mg/kg i.v.): 5.6 µg/mL
- half-life ([2]; iv, 0.25 mg/kg i.v.): 14.8 h
- clearance [2, 5]: 4.19 mL/h/kg
- AUC(0-t) ([2]; sc, 0.5 mg/kg s.c.): 72.9 µg·h/mL
- Cmax ([2]; sc, 0.5 mg/kg s.c.): 2.49 µg/mL
- bioavailability ([2]; sc, 0.5 mg/kg s.c.): 73%
- half-life ([2]; sc, 0.5 mg/kg s.c.): 16.9 h
- AUC(0-t) ([3]; iv, 0.25 mg/kg i.v.): 25.7 µg·h/mL
- Cmax ([3]; iv, 0.25 mg/kg i.v.): 3.92 µg/mL
- half-life ([3]; iv, 0.25 mg/kg i.v.): 8 h
- clearance [3, 5]: 9.59 mL/h/kg
- AUC(0-t) ([3]; sc, 0.5 mg/kg s.c.): 42.2 µg·h/mL
- Cmax ([3]; sc, 0.5 mg/kg s.c.): 2.19 µg/mL
- bioavailability ([3]; sc, 0.5 mg/kg s.c.): 82%
- half-life ([3]; sc, 0.5 mg/kg s.c.): 7.3 h
- Increase in FI [4]: no
- Lag time before increase [4]: >45 h
